According to patent publication US11292781B2, “Pyrimidine tricyclic enone derivatives for inhibition of ROR-gamma and other uses” (REATA PHARMACEUTICALS, INC., priority 2016, dated 2022):
Like-named read-outs stand apart in the source and are kept apart here.

Key:
[1] = tested on: Nrf2 transcription factor (GST ARE luciferase reporter in AREc32 cells); assay: AREc32 luciferase reporter assay; format: cell-based, human; details: EC2×: concentration required to increase GST ARE luciferase reporter activity by 2-fold, 19 hours
Text: A. AREc32 Luciferase Reporter Assay The AREc32 luciferase reporter assay allows for quantitative assessment of the endogenous activity of the Nrf2 transcription factor in cultured mammalian cells. AREc32 cells are derived from MCF-7 human breast carcinoma cells that were stably transfected with a reporter construct that contains the firefly luciferase gene located downstream of eight copies of the rat GSTA2 antioxidant response element (ARE) sequence (Wang et al., 2006; CXR Biosciences). Active NRF2 binds to the ARE sequences and increases expression of the firefly luciferase gene. […] Luciferase activity was determined using the ONE-Glo Luciferase assay (Promega). The luminescence signal was measured on a BMG Pherastar microplate reader. The mean luminescence value from test compound-treated wells was normalized to that from DMSO-treated wells and was represented as fold-induction. Data were analyzed using GraphPad Prism version 6.00 for Windows, GraphPad Software, La Jolla Calif. USA. A non-linear regression curve with log (agonist) vs. response using a variable slope was used to fit the data. […] EC2× values were interpolated from the curve.

[2] = tested on: IL-17A levels in primary human CD4+ T cells differentiated into Th17 cells; assay: IL-17 release from differentiated primary human T-cells (IL-17A HTRF); format: cell-based
Method: C. IL-17 Release from Differentiated Primary Human T-Cells and Cell Viability Primary human cryopreserved CD4+ T Cells (Lonza, donor #0000402103) were plated in Lymphocyte Growth Medium-3 (LGM-3, Lonza) according to the manufacturer's recommendations, and allowed to recover for approximately 3 hours at 37° C. with 5% CO2 in a humidified atmosphere. […] Triplicate wells were plated for each test condition. DMSO (final concentration ≤0.1%) was used as the vehicle. Immediately after plating, CD4+ T cells were activated by adding Dynabeads Human T-Activator CD3/CD28 (Life Technologies; bead-to-cell ratio of 1:2.5) and differentiated into Th17 cells by adding a mixture of the following cytokines: transforming growth factor-β (TGF-β, 5 ng/mL), IL-6 (20 ng/mL), IL-23 (20 ng/mL), and […] (10 ng/mL). Undifferentiated control cells received only cytokine IL-2 (50 ng/mL). All human recombinant cytokines were purchased from R&D Systems. Following a 46-hour incubation at 37° C. with 5% CO2 in a humidified atmosphere, the plates were centrifuged for 3 minutes at 250×g, and half of the supernatant was transferred to a new plate to be used in the IL-17A assay (see below). Cell viability was assessed in the original plate using the CyQuant Direct Assay (Life Technologies). CyQuant values from test compound samples were normalized to those from DMSO-treated samples. The concentration of IL-17A in the supernatant was measured using the Homogeneous Time-Resolved Fluorescence (HTRF) assay (Cisbio Bioassays) according to the manufacturer's protocol. The assay was performed at room temperature in low volume, solid white 384-well plates (Greiner Bio-One). […] A non-linear regression analysis with log (inhibitor) vs. normalized response using a variable slope was applied to fit the data and determine the IC50 values for inhibition of IL-17A levels and cell viability.

[3] = primary human CD4+ T cells, Th17 differentiation, 46-hour incubation, read-out: hIL17 IC50

Row | SMILES | HRF2 ARE 2× [1] [nM] | IC50 [2, 3] [nM] | IC50 ([2]; Homo sapiens, CD4+ T, 46 h, read-out: hIL17 IC50 (nM)) [nM]
1 | CC(=O)Nc1cc(-c2nc(-c3ccccc3F)c3c(n2)[C@]2(C)C=C(C#N)C(=O)[C@H](C)[C@H]2CC3)ccn1 [T61] | 461 | 60 | –
2 | C[C@H]1C(=O)C(C#N)=C[C@@]2(C)c3nc(-c4cccc5cccnc45)nc(-c4ccccc4F)c3CC[C@H]12 [T62] | 401 | 39 | –
3 | Cc1cc(-c2nc(-c3ccccc3F)c3c(n2)[C@]2(C)C=C(C#N)C(=O)[C@H](C)[C@H]2CC3)c2cccc(F)c2n1 [T63] | 259 | 21 | –
4 | C[C@H]1C(=O)C(C#N)=C[C@@]2(C)c3nc(-c4ccnc(N5CCOCC5)c4)nc(-c4ccccc4F)c3CC[C@H]12 [T64] | 425 | 35 | –
5 | C[C@H]1C(=O)C(C#N)=C[C@@]2(C)c3nc(-c4ccnc(-c5ccccc5)c4)nc(-c4ccccc4F)c3CC[C@H]12 [T65] | 463 | 29 | –
6 | C[C@H]1C(=O)C(C#N)=C[C@@]2(C)c3nc(-c4cncc5ccccc45)nc(-c4ccccc4F)c3CC[C@H]12 [T66] | 190 | 39 | –
7 | C[C@H]1C(=O)C(C#N)=C[C@@]2(C)c3nc(-c4cnn5ccccc45)nc(-c4ccccc4F)c3CC[C@H]12 [T67] | 208 | 63 | –
8 | Cc1cccc2c(-c3nc(-c4ccccc4F)c4c(n3)[C@]3(C)C=C(C#N)C(=O)[C@H](C)[C@H]3CC4)ccnc12 [T68] | 253 | 31 | –
9 | Cc1cc(-c2nc(-c3ccccc3F)c3c(n2)[C@]2(C)C=C(C#N)C(=O)[C@H](C)[C@H]2CC3)c2ccccc2n1 [T69] | 227 | 20 | –
10 | Cc1nc(C)c(-c2nc(-c3ccccc3F)c3c(n2)[C@]2(C)C=C(C#N)C(=O)[C@H](C)[C@H]2CC3)s1 [T70] | 391 | 61 | –
11 | Cc1nc(-c2nc(-c3ccccc3F)c3c(n2)[C@]2(C)C=C(C#N)C(=O)[C@H](C)[C@H]2CC3)no1 [T71] | 780 | 198 | –
12 | Cc1ccc2nccc(-c3nc(-c4ccccc4F)c4c(n3)[C@]3(C)C=C(C#N)C(=O)[C@H](C)[C@H]3CC4)c2c1 [T73] | 407 | 69 | –
13 | C[C@H]1C(=O)C(C#N)=C[C@@]2(C)c3nc(-c4ncnc5ccccc45)nc(-c4ccccc4F)c3CC[C@H]12 [T74] | 507 | 49 | –
14 | C[C@H]1C(=O)C(C#N)=C[C@@]2(C)c3nc(-c4nccc5ccccc45)nc(-c4ccccc4F)c3CC[C@H]12 [T75] | 552 | 42 | –
15 | C[C@H]1C(=O)C(C#N)=C[C@@]2(C)c3nc(-c4ccnc5cc(F)ccc45)nc(-c4ccccc4F)c3CC[C@H]12 [T76] | 315 | 35 | –
16 | C[C@H]1C(=O)C(C#N)=C[C@@]2(C)c3nc(-c4ccnc5c(F)cccc45)nc(-c4ccccc4F)c3CC[C@H]12 [T77] | 264 | 31 | –
17 | Cc1cc(-c2nc(-c3ccccc3F)c3c(n2)[C@]2(C)C=C(C#N)C(=O)[C@H](C)[C@H]2CC3)ncn1 [T78] | 629 | 89 | –
18 | C[C@H]1C(=O)C(C#N)=C[C@@]2(C)c3nc(-c4ccnnc4)nc(-c4ccccc4F)c3CC[C@H]12 [T79] | 109 | 143 | –
19 | C[C@H]1C(=O)C(C#N)=C[C@@]2(C)c3nc(-c4ccnc5c4CCC5)nc(-c4ccccc4F)c3CC[C@H]12 [T80] | 312 | 58 | –

Row | SMILES | HRF2 ARE 2× [1] [nM] | IC50 [2, 3] [nM] | IC50 ([2]; Homo sapiens, CD4+ T, 46 h, read-out: hIL17 IC50 (nM)) [nM]
20 | C[C@H]1C(=O)C(C#N)=C[C@@]2(C)c3nc(-c4cccc5ncccc45)nc(-c4ccccc4F)c3CC[C@H]12 [T84] | 321 | 36 | –
21 | Cc1cc(-c2nc(-c3ccccc3F)c3c(n2)[C@]2(C)C=C(C#N)C(=O)[C@H](C)[C@H]2CC3)c2cc(F)ccc2n1 [T85] | 307 | 38 | –
22 | C[C@H]1C(=O)C(C#N)=C[C@@]2(C)c3nc(-c4cccc5cnccc45)nc(-c4ccccc4F)c3CC[C@H]12 [T86] | 276 | 33 | –
23 | Cc1noc(C)c1-c1nc(-c2ccccc2F)c2c(n1)[C@]1(C)C=C(C#N)C(=O)[C@H](C)[C@H]1CC2 [T87] | 245 | 109 | –
24 | C[C@H]1C(=O)C(C#N)=C[C@@]2(C)c3nc(-c4ccnc5ccc(F)cc45)nc(-c4ccccc4F)c3CC[C@H]12 [T89] | 274 | 62 | –
25 | C[C@H]1C(=O)C(C#N)=C[C@@]2(C)c3nc(-c4ccnc5c(F)cc(F)cc45)nc(-c4ccccc4F)c3CC[C@H]12 [T90] | 301 | 37 | –
26 | C[C@H]1C(=O)C(C#N)=C[C@@]2(C)c3nc(-c4ccnc5ccccc45)nc(C4CC4)c3CC[C@H]12 [T93] | 283 | 101 | –
27 | C[C@H]1C(=O)C(C#N)=C[C@@]2(C)c3nc(-c4ccnc5ccccc45)nc(OC4CCC4)c3CC[C@H]12 [T94] | 321 | 58 | –
28 | C[C@H]1C(=O)C(C#N)=C[C@@]2(C)c3nc(-c4ccnc5ccccc45)nc(OCC4CCC4)c3CC[C@H]12 [T95] | 430 | – | 68
29 | C[C@H]1C(=O)C(C#N)=C[C@@]2(C)c3nc(-c4ccnc5ccccc45)nc(OC4CCCCC4)c3CC[C@H]12 [T96] | 492 | 58 | –
30 | C[C@H]1C(=O)C(C#N)=C[C@@]2(C)c3nc(-c4ccnc5ccccc45)nc(OC4CCCC4)c3CC[C@H]12 [T97] | 330 | 35 | –
31 | C[C@H]1C(=O)C(C#N)=C[C@@]2(C)c3nc(-c4ccnc5ccccc45)nc(N(C)C)c3CC[C@H]12 [T99] | 508 | 189 | –
32 | Cc1noc(C)c1-c1nc(-c2ccnc3ccccc23)nc2c1CC[C@@H]1[C@@H](C)C(=O)C(C#N)=C[C@@]21C [T100] | 865 | 178 | –
33 | C[C@H]1C(=O)C(C#N)=C[C@@]2(C)c3nc(-c4ccnc5ccccc45)nc(-c4ccc(C(=O)N(C)Cc5ccccc5)cc4)c3CC[C@H]12 [T101] | 295 | 200 | –
34 | C[C@H]1C(=O)C(C#N)=C[C@@]2(C)c3nc(-c4ccnc5ccccc45)nc(-c4ccco4)c3CC[C@H]12 [T102] | 287 | 153 | –
35 | C[C@H]1C(=O)C(C#N)=C[C@@]2(C)c3nc(-c4ccnc5ccccc45)nc(-c4cc5ccccc5o4)c3CC[C@H]12 [T103] | 277 | 38 | –
36 | Cc1ccc(-c2nc(-c3ccnc4ccccc34)nc3c2CC[C@@H]2[C@@H](C)C(=O)C(C#N)=C[C@@]32C)o1 [T104] | 293 | 86 | –
37 | Cc1noc(-c2nc(-c3ccnc4ccccc34)nc3c2CC[C@@H]2[C@@H](C)C(=O)C(C#N)=C[C@@]32C)n1 [T105] | 292 | 65 | –
38 | Cc1nc(-c2nc(-c3ccnc4ccccc34)nc3c2CC[C@@H]2[C@@H](C)C(=O)C(C#N)=C[C@@]32C)no1 [T106] | 139 | 173 | –
